# According to PMC10305147 (Life, 2023):
# How the values were obtained:
# normal cells = settings: cited from earlier work; for effect on normal cells: cause death for various cancer cells
# [1] = tested on: bronchial epithelial 16HBE normal cells; settings: cited from earlier work
# tumor cell lines = settings: EGCG from green tea at 40–200 microM; cited from earlier work
# 293T normal cells = settings: cited from earlier work
# HuCC-T1 cancer cells = settings: cited from earlier work
# WI38 normal cells = settings: EGCG from green tea at 40–200 microM; cited from earlier work
# [2] = biological target: T1, Acetylcholinesterase (AChE) (Electrophorus electricus, UniProt O42275); assay: AChE enzyme inhibition assay (Ellman's method, modified); settings: IC50, different parts of ELC extracted by MeOH (Table 2)
# T1 sequence (O42275 24-633): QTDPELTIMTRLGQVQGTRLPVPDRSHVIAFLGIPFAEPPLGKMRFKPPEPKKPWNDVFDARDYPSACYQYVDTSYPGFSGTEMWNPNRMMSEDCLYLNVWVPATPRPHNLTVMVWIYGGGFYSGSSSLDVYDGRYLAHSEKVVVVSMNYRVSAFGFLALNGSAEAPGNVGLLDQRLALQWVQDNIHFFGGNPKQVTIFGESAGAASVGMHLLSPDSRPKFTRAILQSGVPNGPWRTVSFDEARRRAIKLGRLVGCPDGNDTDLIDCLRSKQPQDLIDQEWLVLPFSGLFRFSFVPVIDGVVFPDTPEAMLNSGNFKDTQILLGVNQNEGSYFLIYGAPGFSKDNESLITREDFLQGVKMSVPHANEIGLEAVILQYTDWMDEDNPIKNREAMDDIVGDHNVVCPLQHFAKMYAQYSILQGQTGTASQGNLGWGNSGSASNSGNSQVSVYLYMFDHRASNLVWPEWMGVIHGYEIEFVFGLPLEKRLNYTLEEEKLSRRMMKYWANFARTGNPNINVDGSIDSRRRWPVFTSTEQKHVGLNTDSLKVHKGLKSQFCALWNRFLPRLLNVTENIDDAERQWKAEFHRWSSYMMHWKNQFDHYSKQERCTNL
# Experimental: (§1) AChE was used to carry out the inhibitory assay using Ellman’s method [23] with modifications. A 0.05 M phosphate buffer, pH 8.0, was used in this protocol. Additionally, 60 µL of the herbal extract was mixed with the same volume of 0.5 mM enzyme solution and 120 µL of phosphate buffer, and kept at 25 °C for 15 min in a flat-bottom 96-well plate. Agent 5, 5′-dithiobis-2-nitrobenzoic acid (DTNB, 30 µL of 0.003 M) and 40 µL of 0.002 M acetylthiocholine iodide (ATCI) were added into the mixture to start the reaction. The reaction was maintained at 25 °C for 10 min before the absorbance was measured at the wavelength of 415 nm. For the control group, 60 µL of phosphate buffer was used instead of 60 µL of the herbal extract solution and the same condition was used for the calculation of enzyme inhibition activity using the following equation:AChE inhibition (%) = (AC − AE)/AC × 100, where AE is the absorbance value measured at 415 nm of the reaction containing herbal extract and enzyme, while AC is the absorbance value at 415 nm of the reaction containing enzyme and phosphate buffer instead of the herbal extract. The samples and berberine chloride (commercial AChE inhibitor) were dissolved in dimethylsulfoxide and eluted at various concentrations using a 0.05 M phosphate buffer and then used for the tests.
# [3] = biological target: T1, Acetylcholinesterase (AChE)
# Experimental: as §1
# [4] = biological target: T1, Acetylcholinesterase (AChE); assay: biochemical
# Experimental: as §1
# [5] = adjuvant chemotherapeutic agents; cited from earlier work
structure (smiles),measurement,setting,value
"Oc1cc(O)c2c(c1)O[C@H](c1ccc(O)c(O)c1)[C@H](O)C2 [Compd 13, epicatechin]",effect on normal cells,normal cells,no effect on normal cells
"O=c1cc(-c2ccc(O)cc2)oc2c([C@@H]3O[C@H](CO)[C@@H](O)[C@H](O)[C@H]3O)c(O)cc(O)c12 [Compd 15, vitexin]",effect on bronchial epithelial 16HBE normal cells,[1],non-effect
"O=C(O[C@@H]1Cc2c(O)cc(O)cc2O[C@@H]1c1cc(O)c(O)c(O)c1)c1cc(O)c(O)c(O)c1 [Compd 12, epigallocatechin gallate]",death of tumor cell lines,tumor cell lines,significant death
same,viability of 293T normal cells,293T normal cells,safe
same,toxicity on HuCC-T1 cancer cells,HuCC-T1 cancer cells,toxic
same,WI38 normal cells growth affected,WI38 normal cells,1%
"O=c1c(O)c(-c2ccc(O)c(O)c2)oc2cc(O)cc(O)c12 [Compd 20, quercetin]",effects on normal cells,normal cells,no or low effects on normal cells
"COc1ccc2cc3[n+](cc2c1OC)CCc1cc2c(cc1-3)OCO2 [Berberine chloride, berberine chloride]",IC50,[2],972 µM
same,inhibition,[3],98.2 ± 1.8%
same,IC50,[4],934 µM
"O=c1cc(-c2ccc(O)cc2)oc2cc(O[C@@H]3O[C@H](CO)[C@@H](O)[C@H](O)[C@H]3O)cc(O)c12 [Compd 18, apigetrin]",toxicity and side effects via in vivo and clinical trials,[5],trivial toxicity and side effects
"O=c1cc(-c2ccc(O)cc2)oc2cc(O)cc(O)c12 [Compd 21, apigenin]",effects on normal cells,normal cells,no or low effects on normal cells
"O=C(O[C@@H]1Cc2c(O)cc(O)cc2O[C@@H]1c1ccc(O)c(O)c1)c1cc(O)c(O)c(O)c1 [Compd 14, epicatechin gallate]",effect on normal cells,normal cells,no effect on normal cells
"C[C@@H]1O[C@@H](OC[C@H]2O[C@@H](Oc3c(-c4ccc(O)c(O)c4)oc4cc(O)cc(O)c4c3=O)[C@H](O)[C@@H](O)[C@@H]2O)[C@H](O)[C@H](O)[C@H]1O [Compd 17, rutin]",toxicity and side effects via in vivo and clinical trials,[5],trivial toxicity and side effects
"O=c1c(O)c(-c2cc(O)c(O)c(O)c2)oc2cc(O)cc(O)c12 [Compd 19, myricetin]",toxicity and side effects via in vivo and clinical trials,[5],trivial toxicity and side effects
